One compound from paper PMC3681608 (Nature chemical biology, 2010) can be followed below.

One experiment concerns the target CK1ε (Homo sapiens, UniProt P49674). Put plainly: fluorescence ligand dot blot with purified kinase at […] pyrvinium. It counts as binding.
Another experiment addresses CK1γ1 (Homo sapiens, UniProt Q9HCP0). The experiment is described as above. It counts as binding.

The structures appear in SMILES notation. Where a name gives a salt, the structure may show the parent alone.

Sequence of CK1γ1 (Q9HCP0 whole entry): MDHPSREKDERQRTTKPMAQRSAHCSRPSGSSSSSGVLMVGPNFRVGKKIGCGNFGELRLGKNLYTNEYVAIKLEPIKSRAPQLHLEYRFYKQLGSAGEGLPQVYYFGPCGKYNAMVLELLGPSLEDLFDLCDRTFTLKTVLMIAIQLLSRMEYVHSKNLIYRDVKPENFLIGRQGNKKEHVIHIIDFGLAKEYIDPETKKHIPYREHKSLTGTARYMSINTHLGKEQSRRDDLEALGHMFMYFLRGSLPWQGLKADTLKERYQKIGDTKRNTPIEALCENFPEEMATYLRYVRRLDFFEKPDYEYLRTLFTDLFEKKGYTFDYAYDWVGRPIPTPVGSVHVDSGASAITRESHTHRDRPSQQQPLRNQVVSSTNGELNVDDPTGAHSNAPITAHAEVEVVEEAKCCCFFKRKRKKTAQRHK
Sequence of CK1ε (P49674 whole entry): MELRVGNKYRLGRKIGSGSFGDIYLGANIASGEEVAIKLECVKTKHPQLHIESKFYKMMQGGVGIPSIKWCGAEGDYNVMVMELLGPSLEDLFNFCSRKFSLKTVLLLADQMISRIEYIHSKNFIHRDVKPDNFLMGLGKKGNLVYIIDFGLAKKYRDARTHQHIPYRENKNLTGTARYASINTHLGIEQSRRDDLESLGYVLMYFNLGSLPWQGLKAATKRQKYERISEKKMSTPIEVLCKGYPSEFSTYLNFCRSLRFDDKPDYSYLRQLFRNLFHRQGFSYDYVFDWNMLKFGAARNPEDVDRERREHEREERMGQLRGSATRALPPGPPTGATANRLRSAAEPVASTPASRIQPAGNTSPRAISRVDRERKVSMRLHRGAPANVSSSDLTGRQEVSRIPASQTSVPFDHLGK

For `Cc1cc(/C=C/c2ccc3cc(N(C)C)ccc3[n+]2C)c(C)n1-c1ccccc1` [compound 1, 6-(dimethylamino)-2-[2-(2,5-dimethyl-1-phenyl-1H-pyrrol-3-yl)ethenyl]-1-me thyl-quinolinium pamoate salt], the “fluorescence ligand dot blot with purified kinase at 10 nM pyrvinium” value at CK1ε and on CK1γ1 was “Pyrvinium binds all full-length CK1 isoforms tested but only activates CK1α” each time.
